Drawing on patent US10391095B2, “DNA-PK inhibitors” (Vertex Pharmaceuticals Incorporated, priority 2012, dated 2019), this text covers Ki for 66 molecules.

The target in this test is DNA-PK (Homo sapiens, UniProt P78527). Put plainly: DNA-PK inhibition assay (radiometric, 33P-ATP). Particulars: 100 μM ATP, competitive tight-binding fit. It counts as biochemical. Put shortly:
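33P transfer from 100 µM ATP to a DNA-PK peptide (0.8 mg/mL) is measured after 45 min, using about 6 nM enzyme activated by 10 µg/mL sheared dsDNA (HEPES pH 7.5, MgCl2, DTT). Filter-bound counts fitted to a competitive tight-binding inhibition model give Ki.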

As for `CNC(=O)c1ccnc2c([C@H](C)CNc3cc(-c4cnc(C)c(C)c4)ncn3)cccc12` [Compound 870], the Ki (usually a measure of affinity in units of concentration, obtained from inhibition or displacement) was below 30 nM. Take `CNC(=O)c1ccnc2c([C@H](C)CNc3cc(-c4ccc(C#N)c(F)c4)ncn3)cccc12` [Compound 871]: the Ki is below 30 nM. The molecule `CNC(=O)c1ccnc2c([C@H](C)CNc3cc(-c4cc(F)c(OC(C)C)c(F)c4)ncn3)cccc12` [Compound 872] came in with a Ki below 30 nM.

As to `CNC(=O)c1ccnc2c([C@H](C)CNc3cc(-c4cc(F)c(F)c(F)c4)ncn3)cccc12` [Compound 873], the Ki was below 30 nM. `CNC(=O)c1ccnc2c([C@H](C)CNc3cc(-c4cncc(N)c4)ncn3)cccc12` [Compound 874] gave an inhibition constant (Ki) below 30 nM. Regarding `CCOc1cc(-c2cc(NC[C@@H](C)c3cccc4c(C(=O)NC)ccnc34)ncn2)cnc1C` [Compound 875], the Ki was below 30 nM.

`CNC(=O)c1ccnc2c([C@H](C)CNc3cc(-c4ccnc(N)c4)ncn3)cccc12` [Compound 876] returned a Ki below 30 nM. In turn, `CNC(=O)c1ccnc2c([C@H](C)CNc3cc(-c4cncc(S(C)(=O)=O)c4)ncn3)cccc12` [Compound 877] returned a Ki below 30 nM.

Turning to `CNC(=O)c1ccnc2c([C@H](C)CNc3cc(-c4cncc(OC)c4)ncn3)cccc12` [Compound 878], the inhibition constant Ki is below 30 nM. The molecule `CNC(=O)c1ccnc2c([C@H](C)CNc3cc(-c4cncc(C(C)(C)O)c4)ncn3)cccc12` [Compound 879] returned a Ki below 30 nM. Molecule `CNC(=O)c1ccnc2c([C@H](C)CNc3cc(-c4cnc(N5CCOCC5)c(C)c4)ncn3)cccc12` [Compound 880] yielded a Ki below 30 nM. `CNC(=O)c1ccnc2c([C@H](C)CNc3cc(-c4cnc(OC)c(F)c4)ncn3)cccc12` [Compound 881]: the Ki is below 30 nM. Turning to `CNC(=O)c1ccnc2c([C@H](C)CNc3cc(-c4cnc(OC)c(CO)c4)ncn3)cccc12` [Compound 882], the inhibition constant (Ki) is below 30 nM. For `CNC(=O)c1c(F)cnc2c([C@H](C)CNc3cc(-c4cnc(OC)c(CO)c4)ncn3)cccc12` [Compound 884], the Ki was below 30 nM. In turn, `CNC(=O)c1ccnc2c([C@H](C)CNc3cc(-c4cnc(CN(C)C)nc4)ncn3)cccc12` [Compound 885] returned a Ki below 30 nM. As for `CNC(=O)c1ccnc2c([C@H](C)CNc3cc(-c4cnc(COC)nc4)ncn3)cccc12` [Compound 886], the Ki was below 30 nM.

Regarding `CNC(=O)c1ccnc2c([C@H](C)CNc3cc(-c4cc(OC)nc(OC)c4)ncn3)cccc12` [Compound 889], the Ki is below 30 nM. The molecule `CNC(=O)c1ccnc2c([C@H](C)CNc3cc(-c4ccnc(CO)c4)ncn3)cccc12` [Compound 890] gave a Ki below 30 nM. For `CNC(=O)c1ccnc2c([C@H](C)CNc3cc(-c4ccc(OCC5CC5)nc4)ncn3)cccc12` [Compound 891] the value was below 30 nM; for `CNC(=O)c1ccnc2c([C@H](C)CNc3cc(-c4ccnc(N5CCCC5=O)c4)ncn3)cccc12` [Compound 893], below 30 nM; for `CNC(=O)c1ccnc2c([C@H](C)CNc3cc(-c4ccnc(NC5CC5)c4)ncn3)cccc12` [Compound 894], below 30 nM. `CNC(=O)c1c(F)cnc2c([C@H](C)CNc3cc(-c4ccc(OCC5CC5)nc4)ncn3)cccc12` [Compound 896] had a Ki below 30 nM. Take `CCOc1cc(-c2cc(NC[C@@H](C)c3cccc4c(C(=O)NC)c(F)cnc34)ncn2)cnc1OCC` [Compound 897]: the Ki is below 30 nM. Molecule `CNC(=O)c1c(F)cnc2c([C@H](C)CNc3cc(-c4cnc(OC)c(OC)c4)ncn3)cccc12` [Compound 898] came in with an inhibition constant (Ki) below 30 nM. The molecule `CNC(=O)c1c(F)cnc2c([C@H](C)CNc3cc(-c4ccc(F)nc4)ncn3)cccc12` [Compound 899] had a Ki below 30 nM. On to `CNC(=O)c1c(F)cnc2c([C@H](C)CNc3cc(-c4ccc(OC)nc4)ncn3)cccc12` [Compound 900], for which the Ki was below 30 nM.

Turning to `CNC(=O)c1c(F)cnc2c([C@H](C)CNc3cc(-c4ccc(C#N)nc4)ncn3)cccc12` [Compound 901], the Ki is below 30 nM. In turn, `CNC(=O)c1c(F)cnc2c([C@H](C)CNc3cc(-c4cnc(OC)c(N)c4)ncn3)cccc12` [Compound 902] returned a Ki below 30 nM. As to `CNC(=O)c1ccnc2c([C@H](C)CNc3cc(-c4ccnc(C)c4)ncn3)ccc(F)c12` [Compound 903], the Ki is below 30 nM. With `CNC(=O)c1ccnc2c([C@H](C)CNc3cc(-c4ccc(OCC5CC5)nc4)ncn3)ccc(F)c12` [Compound 904], the Ki is below 30 nM. To `CCOc1cc(-c2cc(NC[C@@H](C)c3ccc(F)c4c(C(=O)NC)ccnc34)ncn2)cnc1OCC` [Compound 905] belongs below 30 nM.

As to `CNC(=O)c1ccnc2c([C@H](C)CNc3cc(-c4cnc(OC)c(OC)c4)ncn3)ccc(F)c12` [Compound 906], the Ki was below 30 nM. In turn, `CNC(=O)c1ccnc2c([C@H](C)CNc3cc(-c4ccc(F)nc4)ncn3)ccc(F)c12` [Compound 907] gave a Ki below 30 nM. Molecule `CNC(=O)c1ccnc2c([C@H](C)CNc3cc(-c4ccc(OC)nc4)ncn3)ccc(F)c12` [Compound 908] registered an inhibitory constant (Ki) below 30 nM.

The molecule `CNC(=O)c1ccnc2c([C@H](C)CNc3cc(-c4ccc(C#N)nc4)ncn3)ccc(F)c12` [Compound 909] had a Ki below 30 nM.

Take `CNC(=O)c1ccnc2c([C@H](C)CNc3cc(-c4cnc(OC)c(N)c4)ncn3)ccc(F)c12` [Compound 910]: the Ki was below 30 nM. Turning to `CNC(=O)c1ccnc2c([C@H](C)CNc3cc(-c4ccnc(C5CC5)c4)ncn3)cccc12` [Compound 911], the inhibition constant (Ki) is below 30 nM.

Take `CNC(=O)c1ccnc2c([C@H](C)CNc3cc(-c4cncc(N5CCOCC5)c4)ncn3)cccc12` [Compound 912]: the Ki is below 30 nM. For `CNC(=O)c1ccnc2c([C@H](C)CNc3cc(-c4ccnc(C5CCC5)c4)ncn3)cccc12` [Compound 913] the value was below 30 nM; for `CNC(=O)c1ccnc2c([C@H](C)CNc3cc(-c4ccnc(C5CC5)c4)ncn3)ccc(F)c12` [Compound 914], below 30 nM.

`CNC(=O)c1ccnc2c([C@H](C)CNc3cc(-c4cncc(N5CCOCC5)c4)ncn3)ccc(F)c12` [Compound 915] registered a Ki below 30 nM. The molecule `CNC(=O)c1ccnc2c([C@H](C)CNc3cc(-c4cnc(CO)c(OC)c4)ncn3)ccc(F)c12` [Compound 916] gave a Ki below 30 nM. Turning to `CNC(=O)c1c(F)cnc2c([C@H](C)CNc3cc(-c4ccnc(C5CC5)c4)ncn3)cccc12` [Compound 917], the Ki is below 30 nM. Molecule `CNC(=O)c1c(F)cnc2c([C@H](C)CNc3cc(-c4cnc(C#N)c(OC)c4)ncn3)cccc12` [Compound 918] registered a Ki below 30 nM. In the case of `CNC(=O)c1c(F)cnc2c([C@H](C)CNc3cc(-c4ccnc(C5CCC5)c4)ncn3)cccc12` [Compound 919], the inhibitory constant (Ki) was below 30 nM. For `CNC(=O)c1c(F)cnc2c([C@H](C)CNc3cc(-c4cnc(CO)c(OC)c4)ncn3)cccc12` [Compound 920] the value was below 30 nM.

The molecule `CNC(=O)c1c(F)cnc2c([C@H](C)CNc3cc(-c4ccc(NC5CC5)nc4)ncn3)cccc12` [Compound 921] gave a Ki below 30 nM. Consider `CCNc1ccc(-c2cc(NC[C@@H](C)c3ccc(F)c4c(C(=O)NC)ccnc34)ncn2)cn1` [Compound 922], for which the Ki is below 30 nM. For `CNC(=O)c1ccnc2c([C@H](C)CNc3cc(-c4cnc(C#N)c(OC)c4)ncn3)ccc(F)c12` [Compound 923] the value was below 30 nM. Turning to `CNC(=O)c1ccnc2c([C@H](C)CNc3cc(-c4cnc(C#N)c(OC)c4)ncn3)cccc12` [Compound 924], the inhibition constant (Ki) is below 30 nM. `CNC(=O)c1ccnc2c([C@H](C)CNc3cc(-c4ccc(C(O)C(C)C)nc4)ncn3)cccc12` (stereo partly drawn) [Compound 925]: the inhibition constant (Ki) is below 30 nM. In turn, `CNC(=O)c1ccnc2c([C@H](C)CNc3cc(-c4ccc(C(O)C(C)C)nc4)ncn3)ccc(F)c12` (stereo partly drawn) [Compound 926] showed a Ki below 30 nM. Molecule `CNC(=O)c1c(F)cnc2c([C@H](C)CNc3cc(-c4ccc(C(O)C(C)C)nc4)ncn3)cccc12` (stereo partly drawn) [Compound 927] displayed an inhibitory constant (Ki) below 30 nM. As for `CNC(=O)c1ccnc2c([C@H](C)CNc3cc(-c4cnc(C(C)(C)OC)nc4)ncn3)cccc12` [Compound 928], the Ki is below 30 nM. Turning to `CNC(=O)c1ccnc2c([C@H](C)CNc3cc(-c4cnc(C(C)(C)OC)nc4)ncn3)ccc(F)c12` [Compound 929], the Ki was below 30 nM. `CNC(=O)c1c(F)cnc2c([C@H](C)CNc3cc(-c4cnc(C(C)(C)OC)nc4)ncn3)cccc12` [Compound 930] showed a Ki below 30 nM. To `CCNc1ncc(-c2cc(NC[C@@H](C)c3ccc(F)c4c(C(=O)NC)ccnc34)ncn2)cn1` [Compound 931] belongs below 30 nM; to `CCOc1ccc(-c2cc(NC[C@@H](C)c3cccc4c(C(=O)NC)c(F)cnc34)ncn2)cn1` [Compound 932], below 30 nM. Turning to `CCOc1ccc(-c2cc(NC[C@@H](C)c3cccc4c(C(=O)NC)ccnc34)ncn2)cn1` [Compound 933], the Ki is below 30 nM.

The molecule `CCOc1ccc(-c2cc(NC[C@@H](C)c3ccc(F)c4c(C(=O)NC)ccnc34)ncn2)cn1` [Compound 934] came in with an inhibition constant Ki below 30 nM. Regarding `CNC(=O)c1ccnc2c([C@H](C)CNc3cc(-c4cnc5c(c4)OCCO5)ncn3)cccc12` [Compound 935], the Ki is below 30 nM. In turn, `CNC(=O)c1ccnc2c([C@H](C)CNc3cc(-c4cnc5c(c4)OCCO5)ncn3)ccc(F)c12` [Compound 936] returned a Ki below 30 nM.

Molecule `CNC(=O)c1c(F)cnc2c([C@H](C)CNc3cc(-c4cnc5c(c4)OCCO5)ncn3)cccc12` [Compound 937] showed an inhibitory constant (Ki) below 30 nM. For `CNC(=O)c1c(F)cnc2c([C@H](C)CNc3cc(-c4cnc(OC(C)C)nc4)ncn3)cccc12` [Compound 938], the Ki was below 30 nM.

The molecule `CNC(=O)c1ccnc2c([C@H](C)CNc3cc(-c4ccc(C5(N)CC5)nc4)ncn3)cccc12` [Compound 939] came in with a Ki below 30 nM. For `CNC(=O)c1ccnc2c([C@H](C)CNc3cc(-c4ccc(C5(N)CC5)nc4)ncn3)ccc(F)c12` [Compound 940] the value was below 30 nM.
